{"source": "patent US10039288B2", "about": "“Pathogenic infections” (University of Surrey, priority 2015, dated 2018)", "key": {"P. viticola": {"test_system": "P. viticola", "design": "species or system Plasmopara viticola"}, "Plasmopara viticola [1]": {"test_system": "Plasmopara viticola", "assay": "In vitro zoospore germination and activity, MIC(100%)", "format": "cell-based", "settings": "for Minimal inhibitory concentration (MIC(100%)) Plasmopara viticola: zoospore germination and activity, in vitro; for MIC: Plasmopara viticola, read-out: Minimal inhibitory concentration (MIC(100%)) Plasmopara viticola"}, "Phytophthora infestans": {"test_system": "Phytophthora infestans", "format": "cell-based", "settings": "germination, in vitro"}, "Plasmopara viticola [2]": {"test_system": "Plasmopara viticola", "assay": "Preliminary screening of crude extracts and compounds (Table 3)"}, "[3]": {"settings": "0.147% mass/volume, Isopropanol"}}, "note": "Where “and” joins values, the source holds several entries; their conditions need not be identical. Equal values may be shown once. Read-outs that look alike come from different tables or passages of the source."}
{"smiles": "C=CC(C)(O)CCC1C(=C)CC(OC(C)=O)C2C(C)(C)CCCC12C", "note": "(stereo not drawn) [Compound 2, larixyl acetate]", "values": [{"measurement": "Efficacy (%)", "setting": "P. viticola; 0.01% mass/volume, Isopropanol", "value": 24.5, "unit": "%"}, {"measurement": "Efficacy (%)", "setting": "P. viticola; 0.012% mass/volume, Ethanol", "value": 69.2, "unit": "%"}, {"measurement": "Efficacy (%)", "setting": "P. viticola; 0.025% mass/volume, Ethanol", "value": 83.3, "unit": "%"}, {"measurement": "Efficacy (%)", "setting": "P. viticola; 0.05% mass/volume, Ethanol", "value": 98.4, "unit": "%"}, {"measurement": "Efficacy (%)", "setting": "P. viticola; 0.1% mass/volume, Ethanol", "value": "99.9% and 99.4%"}, {"measurement": "Efficacy (%)", "setting": "P. viticola; 0.12% mass/volume, Ethanol", "value": 100.0, "unit": "%"}, {"measurement": "Efficacy (%)", "setting": "P. viticola; [3]", "value": 99.5, "unit": "%"}, {"measurement": "Minimal inhibitory concentration (MIC(100%)) Plasmopara viticola", "setting": "Plasmopara viticola [1]", "value": 4, "unit": "ppm"}, {"measurement": "Minimal inhibitory concentration (MIC(100%)) Phytophthora infestans", "setting": "Phytophthora infestans", "value": 125, "unit": "ppm"}, {"measurement": "Activity", "setting": "Plasmopara viticola [2]; sample 0.012% mass/volume", "value": 69.2, "unit": "%"}, {"measurement": "Activity", "setting": "Plasmopara viticola [2]; sample 0.12% mass/volume", "value": 100, "unit": "%"}]}
{"smiles": "C=C[C@@](C)(O)CC[C@H]1C(=C)C[C@H](O)[C@H]2C(C)(C)CCC[C@]12C", "note": "[Compound 1, larixol]", "values": [{"measurement": "Efficacy (%)", "setting": "P. viticola; 0.0147% mass/volume, Isopropanol", "value": 36.3, "unit": "%"}, {"measurement": "Efficacy (%)", "setting": "P. viticola; 0.025% mass/volume, Ethanol", "value": 91.2, "unit": "%"}, {"measurement": "Efficacy (%)", "setting": "P. viticola; 0.074% mass/volume, Isopropanol", "value": 100.0, "unit": "%"}, {"measurement": "Efficacy (%)", "setting": "P. viticola; 0.1% mass/volume, Ethanol", "value": 98.8, "unit": "%"}, {"measurement": "Efficacy (%)", "setting": "P. viticola; [3]", "value": 99.5, "unit": "%"}, {"measurement": "Minimal inhibitory concentration (MIC(100%)) Plasmopara viticola", "setting": "Plasmopara viticola [1]", "value": 16, "unit": "ppm"}, {"measurement": "Minimal inhibitory concentration (MIC(100%)) Phytophthora infestans", "setting": "Phytophthora infestans", "value": 500, "unit": "ppm"}, {"measurement": "Activity", "setting": "Plasmopara viticola [2]; sample 0.0147% mass/volume", "value": 36.3, "unit": "%"}, {"measurement": "Activity", "setting": "Plasmopara viticola [2]; sample 0.074% mass/volume", "value": 100, "unit": "%"}, {"measurement": "Activity", "setting": "Plasmopara viticola [2]; sample 0.147% mass/volume", "value": 99.5, "unit": "%"}]}
{"smiles": "COc1cc(C[C@H]2CO[C@H](c3ccc(O)c(OC)c3)[C@H]2CO)ccc1O", "note": "[Compound 3, (+)-lariciresinol]", "values": [{"measurement": "MIC", "setting": "Plasmopara viticola [1]", "value": 250, "unit": "µg/mL"}, {"measurement": "Minimal inhibitory concentration (MIC(100%)) Phytophthora infestans", "setting": "Phytophthora infestans", "value": "No activity"}, {"measurement": "Activity", "setting": "Plasmopara viticola [2]; sample 0.01% mass/volume", "value": 14.4, "unit": "%"}, {"measurement": "Activity", "setting": "Plasmopara viticola [2]; sample 0.1% mass/volume", "value": 94.1, "unit": "%"}]}
{"smiles": "COc1cc(C[C@H]2CO[C@H](c3ccc(O)c(OC)c3)[C@H]2COC(C)=O)ccc1O", "note": "[Compound 4, (+)-lariciresinol acetate]", "values": [{"measurement": "MIC", "setting": "Plasmopara viticola [1]", "value": 125, "unit": "µg/mL"}, {"measurement": "Minimal inhibitory concentration (MIC(100%)) Phytophthora infestans", "setting": "Phytophthora infestans", "value": "No actvity"}, {"measurement": "Activity", "setting": "Plasmopara viticola [2]; sample 0.008% mass/volume", "value": 13.1, "unit": "%"}, {"measurement": "Activity", "setting": "Plasmopara viticola [2]; sample 0.036% mass/volume", "value": 78.8, "unit": "%"}, {"measurement": "Activity", "setting": "Plasmopara viticola [2]; sample 0.08% mass/volume", "value": 92.4, "unit": "%"}]}
